Measurements reported in the supplement of paper PMC10307832.

Assays:
Assay in all cases: relative viability (nuclei count vs DMSO), 5 days (fraction); higher = more cells survive
[1] = compound: CC(=O)c1c(C)c2cnc(Nc3ccc(N4CCNCC4)cn3)nc2n(C2CCCC2)c1=O [Palbociclib] + CS(=O)(=O)CCNCc1ccc(-c2ccc3ncnc(Nc4ccc(OCc5cccc(F)c5)c(Cl)c4)c3c2)o1 [Lapatinib] (partner 2 µM)
How it was run: (§1)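 Relative viability divides the nuclei count in treated wells by that in vehicle wells. Lung cancer cell lines were seeded in 1536-well plates, dosed by pin tool the next day, and fixed and stained after 5 days in one step with final 0.05% Triton X-100, 1% formaldehyde and 1 ug/ml Hoechst. Dosing was a single drug or a fixed anchor-drug dose plus five library-drug doses (not always all listed) in √10 steps, and values are medians of duplicate plates imaged at 4×.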

[2] = compound: CC(=O)c1c(C)c2cnc(Nc3ccc(N4CCNCC4)cn3)nc2n(C2CCCC2)c1=O [Palbociclib] + Nc1ncn([C@H]2C[C@H](O)[C@@H](CO)O2)c(=O)n1 [Decitabine] (partner 2 µM)
How it was run: as §1

[3] = compound: CC(=O)c1c(C)c2cnc(Nc3ccc(N4CCNCC4)cn3)nc2n(C2CCCC2)c1=O [Palbociclib] + Cc1cc(Nc2cc(N3CCN(C)CC3)nc(Sc3ccc(NC(=O)C4CC4)cc3)n2)n[nH]1 [Tozasertib] (partner 0.1 µM)
How it was run: as §1

[4] = compound: CC(=O)c1c(C)c2cnc(Nc3ccc(N4CCNCC4)cn3)nc2n(C2CCCC2)c1=O [Palbociclib] + C[C@]1(O)C[C@@H](c2nc(-c3ccc4ccc(-c5ccccc5)nc4c3)c3c(N)nccn32)C1 [Linsitinib] (partner 1 µM)
How it was run: as §1

Row | Cell Line | relative viability ([1]; first compound 0.01 µM) | relative viability ([1]; first compound 0.03162 µM) | relative viability ([1]; first compound 0.1 µM) | relative viability ([1]; first compound 0.3162 µM) | relative viability ([1]; first compound 1 µM) | relative viability ([2]; first compound 0.01 µM) | relative viability ([2]; first compound 0.03162 µM) | relative viability ([2]; first compound 0.1 µM) | relative viability ([2]; first compound 0.3162 µM) | relative viability ([2]; first compound 1 µM) | relative viability ([3]; first compound 0.01 µM) | relative viability ([3]; first compound 0.03162 µM) | relative viability ([3]; first compound 0.1 µM) | relative viability ([3]; first compound 0.3162 µM) | relative viability ([3]; first compound 1 µM) | relative viability ([4]; first compound 0.01 µM) | relative viability ([4]; first compound 0.03162 µM) | relative viability ([4]; first compound 0.1 µM) | relative viability ([4]; first compound 0.3162 µM) | relative viability ([4]; first compound 1 µM)
1 | NCI-H2009 | 0.859 | 0.391 | 0.697 | 0.63 | 0.369 | 0.375 | 0.347 | 0.358 | 0.365 | 0.274 | 0.739 | 0.729 | 0.625 | 0.479 | 0.346 | 1.18 | 1.02 | 0.957 | 0.909 | 0.494
2 | NCI-H2085 | 0.756 | 0.7 | 0.669 | 0.663 | 0.362 | 0.555 | 0.55 | 0.65 | 0.534 | 0.538 | 0.84 | 0.701 | 0.689 | 0.635 | 0.523 | 1.01 | 0.785 | 0.77 | 0.662 | 0.571
3 | LOU-NH91 | 0.8 | 0.596 | 0.581 | 0.569 | 0.557 | 0.817 | 0.732 | 0.693 | 0.631 | 0.61 | 0.778 | 0.51 | 0.541 | 0.575 | 0.452 | 1.02 | 0.79 | 0.668 | 0.6 | 0.605
4 | NCI-H1734 | 1.01 | 0.575 | 0.867 | 0.789 | 0.531 | 0.46 | 0.524 | 0.539 | 0.461 | 0.43 | 0.267 | 0.253 | 0.29 | 0.231 | 0.277 | 0.918 | 0.765 | 0.789 | 0.641 | 0.564
5 | HARA | 0.715 | 0.473 | 0.397 | 0.363 | 0.225 | 0.699 | 0.474 | 0.418 | 0.319 | 0.449 | 0.108 | – | 0.0705 | 0.102 | 0.0769 | 1.02 | 0.78 | 0.83 | 0.454 | 0.361
6 | NCI-H2087 | 1.08 | 0.814 | 0.688 | 0.649 | 0.442 | 0.234 | 0.272 | 0.2 | 0.228 | 0.171 | 0.212 | – | 0.189 | 0.189 | 0.156 | 0.932 | 0.837 | 0.826 | 0.503 | 0.541
7 | COR-L 105 | 0.352 | 0.281 | 0.312 | 0.339 | 0.354 | 0.777 | 0.629 | 0.554 | 0.604 | 0.452 | 0.379 | 0.335 | 0.341 | 0.308 | 0.318 | 0.987 | 0.91 | 0.509 | 0.571 | 0.429
8 | HCC-44 | 0.886 | 0.939 | 0.978 | 0.979 | 1.02 | 0.944 | 0.866 | 0.948 | 0.873 | 1 | 0.871 | 0.781 | 1.1 | 1.1 | 1.11 | 0.661 | 0.648 | 0.691 | 0.679 | 0.661
9 | SK-MES-1 | 0.439 | 0.449 | 0.391 | 0.406 | 0.344 | 0.354 | 0.377 | 0.404 | 0.357 | 0.263 | 0.858 | 0.76 | 0.595 | 0.502 | 0.29 | 1.01 | 1 | 0.791 | 0.772 | 0.609
10 | SW 1573 | 1.01 | 1.09 | 1.04 | 0.901 | 0.781 | 0.573 | 0.455 | 0.598 | 0.479 | 0.326 | 0.151 | 0.185 | 0.167 | 0.148 | 0.163 | 0.69 | 0.733 | 0.639 | 0.669 | 0.5
11 | NCI-H2023 | 0.728 | 0.165 | 0.545 | 0.55 | 0.353 | 0.225 | 0.189 | 0.254 | 0.272 | 0.251 | 0.377 | 0.31 | 0.314 | 0.297 | 0.292 | 0.658 | 0.597 | 0.57 | 0.472 | 0.316
12 | NCI-H1651 | 0.613 | 0.739 | 0.735 | 0.699 | 0.468 | 0.636 | 0.535 | 0.636 | 0.555 | 0.451 | 0.749 | 0.603 | 0.665 | 0.617 | 0.685 | 0.972 | 0.913 | 1.01 | 0.933 | 0.698
13 | EMC-BAC-2 | 0.908 | 0.515 | 0.793 | 0.689 | 0.597 | 1.02 | 0.818 | 0.869 | 0.783 | 0.604 | 0.24 | 0.298 | 0.277 | 0.285 | 0.29 | 0.815 | 0.709 | 0.712 | 0.651 | 0.594
14 | NCI-H1993 | 0.841 | 0.715 | 0.661 | 0.624 | 0.658 | 0.61 | 0.588 | 0.606 | 0.507 | 0.555 | 0.612 | 0.572 | 0.575 | 0.507 | 0.509 | 0.706 | 0.722 | 0.648 | 0.693 | 0.676
15 | UMC-11 | 1.03 | 0.75 | 0.593 | 0.432 | 0.34 | 0.696 | 0.624 | 0.363 | 0.48 | 0.336 | 0.197 | 0.187 | 0.202 | 0.22 | 0.208 | 1.02 | 0.894 | 0.888 | 0.536 | 0.326
16 | LXF-289 | 0.852 | 0.888 | 0.838 | 0.747 | 0.7 | 0.367 | 0.405 | 0.411 | 0.363 | 0.422 | 0.175 | 0.2 | 0.19 | 0.233 | 0.248 | 0.914 | 0.959 | 0.99 | 0.88 | 0.734
